Reference: article PMC7613620, “Reaction hijacking of tyrosine tRNA synthetase as a whole-of-life-cycle antimalarial strategy” (Science (New York, N.Y.), 2022)
Where two headings read alike, the source gives them in different places.

Columns and labels:
[1] = test system: protein translation in P. falciparum (Cam3.II-rev) schizonts; test: Protein translation assay (O-propargyl-puromycin incorporation); format: cell-based, Plasmodium falciparum; settings: read-out: IC50 (Translation)
Method: 723 then fixed for 10 minutes (4% formaldehyde/0.02% glutaraldehyde in PBS). The click reaction was
724 performed for 1 h in the presence of CuSO4 (0.1 mM), THPTA (0.5 mM) and sodium ascorbate (5 mM) to
725 bring about azide-alkyne cycloaddition to Alexa Fluor 488 azide (0.1 µM). Flow cytometry was performed
726 using the FITC and Cy™5.5 channels to detect the Alexa Fluor 488 and PI, respectively.
729 Cam 3.II_Rev (25) trophozoite-infected RBCs (25-30 h p.i.) were incubated with inhibitor for 3 h at 10%
730 hematocrit and 5% parasitemia. The RBC pellet was washed 3 x in PBS + cOmplete. Cells were centrifuged
731 at 380 x g for 5 min and the pelleted cells lysed by resuspension in PBS + 0.05% saponin for 5 min on ice.

[2] = test system: P. falciparum (Cam3.II-rev) schizont stage; test: 3 h drug pulse viability assay; format: cell-based, Plasmodium falciparum; settings: read-out: IC50 (Viability)
Method: 553 Sigma-Aldrich) for 48-72 h. For drug pulse assays, tightly synchronized parasites (1-1.5% parasitemia,
554 0.2% final hematocrit) were added to the plates and incubated for 3 h. Drugs were removed and the
555 parasitemia assessed in the trophozoite stage of the next cycle.
557 Compounds were tested against a range of drug resistant field isolates and laboratory strains using a
558 modified [3H]-hypoxanthine incorporation assay, as previously reported (46). Field isolates 7G8, Cam3.1,
559 Dd2, K1, TM90C2B and NF54 were obtained from MR4 (www.beiresources.org).
561 Mammalian cell culture experiments
562 The HepG2 (Human hepatocyte carcinoma) cell line was procured from ATCC (American Type
563 Culture Collection, Manassas, USA; HB-8065) and viability assessed using Cell Titer-GLO luminescent
564 cell viability assay reagents (Promega, catalogue number: G7570) (47, 48). For the assay, 2000 cells/well
565 were plated in 384-well plates 24 h prior to the experiment and incubated at 37°C in a CO2 incubator. The
566 medium was removed and cells were treated with fresh medium containing either vehicle (0.5% DMSO)
567 or serially diluted test compounds or doxorubicin (1.3 nM to 25 µM) in a final volume of 50 µl/well and
568 further incubated for 72 h at 37°C in a CO2 incubator.
569 were treated with 5 µl of 1% Triton X-100 (final assay conc. 0.1%). Following incubation, 25 µl of medium
570 was discarded and 25 µl of Cell Titer-GLO reagent was added to each well and the plate was kept on a plate
571 shaker for 15 min at 25°C with shaking at 300 rpm. Luminescence signals were measured in a Spectramax
572 M5 reader (Molecular Devices).
574 H1650 is a human lung cancer derived ATG7-null cell line (49) that can be used to assess effects on targets
576 adenocarcinoma; bronchoalveolar carcinoma). Other cells lines used are: H460 (NCI-H460; human lung;
577 carcinoma; large cell lung cancer; ATCC: HTB-177); and HCT116 (human colon; colorectal carcinoma;
578 ATCC: CCL-247; Lot : 5056139). […]
580 inhibitors and cell viability was assessed by comparing the ATP content in compound-treated wells with […]

[3] = molecular target: PfYRS (Plasmodium falciparum, UniProt Q8IAR7); test: biochemical; format: binding
Method: (§1) 804 An intron was detected in the PftRNATyr sequence, that was not indicated in PlasmoDB. A T7 RNA
(§2) 805 polymerase promoter sequence was added to the 5’ end of the DNA sequence of P. falciparum and H.
(§3) 806 sapiens tRNATyr. This DNA template and its complementary strand were custom-synthesized by Sigma-
(§4) 807 Aldrich. Two oligonucleotides were annealed at 95°C for 5 min and the double-stranded DNA template
(§5) 808 was used for in vitro transcription. The transcription reaction was incubated at 37°C overnight. The reaction
(§6) 809 mixture consists of template DNA, T7 RNA polymerase and NTP mix as per manufacturer's instructions
(§7) 810 (HiScribe™ T7 Quick High Yield RNA Synthesis Kit, NEB). On the following day, the reaction mixture
(§8) 811 was treated with DNase I at 37°C for 15 min. tRNA was purified using RNA clean-up spin columns
(§9) 812 (Monarch® RNA Cleanup Kit, NEB) to remove contaminants from the transcription reaction.
(§10) 814 Differential scanning fluorimetry (DSF)
(§11) 815 PfYRS and HsYRS at 0.1 mg/ml were incubated with various substrates at 37°C for 1-3 h. PfYRS was
(§12) 816 assayed in 25 mM Tris, pH 8, 150 mM NaCl, 5 mM MgCl2 and 1 mM TCEP. HsYRS was assayed in 50
(§13) 817 mM Tris, pH 7.5, 150 mM NaCl, 50 mM KCl, 5 mM MgCl2 and 1 mM TCEP. SYPRO Orange (Sigma-
(§14) 818 Aldrich; 5,000X concentrate in DMSO) was added to the reaction mixture at a final concentration of 2.5X.
(§15) 819 25 µL of the sample was added into each well of a 96-well qPCR plate (Applied Biosystems). The plate
(§16) 820 was sealed and analysed using StepOnePlus Real-Time PCR system (Applied Biosystems). The samples
(§17) 821 were heated from 20°C to 90°C with a 1% continuous gradient. The thermal unfolding curve was plotted
(§18) 822 as the first derivative curve of the raw fluorescence values. The melting temperature (Tm), defined as the
(§19) 823 peak of the first derivative curve, was used to assess the thermal stability of protein-ligand complexes. KD
(§20) 824 values were calculated from DTm using the equation: ln(KD/[L]) = -131.5 x (∆Tm/Tm,apo) - 1.9, where [L]
(§21) 825 is the concentration of ligand and T is the temperature in Kelvin (40). […]

[4] = molecular target: PfYRSS234C (Plasmodium falciparum, UniProt Q8IAR7, S234C); test: biochemical; format: binding
Method: as §1, §2, §3, §4, §5, §6, §7, §8, §9, §10, §11, §12, §13, §14, §15, §16, §17, §18, §19, §20, §21

[5] = molecular target: T1, HsYRS (Homo sapiens, UniProt P54577); test: Differential scanning fluorimetry, HsYRS; format: binding
T1 construct: made in house; host or cells: E. coli BL21(DE3), pET-11a
T1 sequence (P54577 1-364): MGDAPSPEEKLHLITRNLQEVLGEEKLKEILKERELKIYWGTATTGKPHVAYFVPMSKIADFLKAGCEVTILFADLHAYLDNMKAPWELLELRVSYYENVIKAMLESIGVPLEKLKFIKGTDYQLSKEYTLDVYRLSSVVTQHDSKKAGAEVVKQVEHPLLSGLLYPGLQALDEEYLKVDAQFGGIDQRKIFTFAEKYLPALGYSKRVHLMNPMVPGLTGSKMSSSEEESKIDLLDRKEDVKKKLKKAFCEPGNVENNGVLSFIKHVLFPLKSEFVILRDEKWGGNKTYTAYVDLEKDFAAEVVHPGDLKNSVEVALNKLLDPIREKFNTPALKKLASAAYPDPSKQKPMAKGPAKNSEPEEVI
Method: This DNA template and its complementary strand were custom-synthesized by Sigma-
as §7, §16
The thermal unfolding curve was plotted
The melting temperature (Tm), defined as the
Reactions were conducted in 50 mM Tris-
Reactions were conducted in 50 mM Tris-HCL, pH 7.6,

Chain of PfYRSS234C (Q8IAR7 whole entry S234C): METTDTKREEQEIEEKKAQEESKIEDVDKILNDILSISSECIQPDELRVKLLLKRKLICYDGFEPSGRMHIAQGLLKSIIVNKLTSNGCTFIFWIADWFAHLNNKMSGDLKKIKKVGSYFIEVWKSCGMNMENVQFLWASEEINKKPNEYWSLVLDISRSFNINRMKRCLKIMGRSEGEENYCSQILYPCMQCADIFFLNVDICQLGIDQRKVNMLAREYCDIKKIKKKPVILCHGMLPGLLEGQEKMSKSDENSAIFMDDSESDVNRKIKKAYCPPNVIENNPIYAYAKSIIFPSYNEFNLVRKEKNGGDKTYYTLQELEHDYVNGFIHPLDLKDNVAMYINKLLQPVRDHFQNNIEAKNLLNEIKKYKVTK
Chain of PfYRS (Q8IAR7 entry or part of it): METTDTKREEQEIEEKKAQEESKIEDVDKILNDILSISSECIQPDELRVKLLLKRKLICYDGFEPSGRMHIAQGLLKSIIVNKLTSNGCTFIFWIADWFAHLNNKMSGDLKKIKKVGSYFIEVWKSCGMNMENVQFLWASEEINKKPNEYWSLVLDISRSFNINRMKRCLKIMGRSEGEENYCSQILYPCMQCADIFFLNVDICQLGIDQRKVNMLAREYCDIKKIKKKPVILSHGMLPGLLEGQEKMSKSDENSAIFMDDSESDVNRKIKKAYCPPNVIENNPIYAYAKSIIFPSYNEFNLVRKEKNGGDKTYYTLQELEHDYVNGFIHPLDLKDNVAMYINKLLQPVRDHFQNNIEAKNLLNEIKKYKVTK

For `CC1(C)N=C(N)N=C(N)N1OCCCOc1cc(Cl)c(Cl)cc1Cl` [WR99210], which IC50 ([1]; schizont stage Cam3.II-rev, 1 h pre-incubation then OPP incorporation over next 2 h) is on record?
The IC50 was > 1000 nM.

And the IC50 ([2]; schizont stage Cam3.II-rev, 3 h exposure, viability at trophozoite stage of next cycle)?
The IC50 was 1.9 nM.

`C[C@@H]1C[C@@H]([C@H](O)CC2CC(=O)NC(=O)C2)C(=O)[C@@H](C)C1` [cycloheximide] was tested. Which IC50 ([1]; Plasmodium falciparum) did it give?
Its IC50 is 2000 nM.

And the IC50 ([2]; Plasmodium falciparum, 3 h)?
Its IC50 is 3200 nM.

What does the source list for `Nc1ncnc2c1ncn2[C@@H]1O[C@H](COP(=O)(O)OC(=O)[C@@H](N)Cc2ccc(O)cc2)[C@@H](O)[C@H]1O` [AMP-Tyr]?
Tm ([3]; PfYRS 2.3 μM, after incubation at 37°C for 3 h): 62.6 ± 0.2 oC; DTm ([3]; PfYRS, versus apo): 12.4 oC; Kd ([3]; PfYRS, estimated from DSF by empirical correlation of DTm and KD, read-out: Apparent KD*): 2.2 nM; Tm ([4]; PfYRSS234C 2.3 μM, after incubation at 37°C for 3 h): 57.1 ± 0.3 oC; DTm ([4]; PfYRSS234C, versus apo): 6.5 oC; Kd ([4]; PfYRSS234C, estimated from DSF by empirical correlation of DTm and KD, read-out: Apparent KD*): 24 nM; Tm ([5]; HsYRS 2.3 μM, after incubation at 37°C for 3 h): 53.3 ± 0.2 oC; DTm ([5]; HsYRS, versus apo): 2.8 oC; Kd ([5]; HsYRS, estimated from DSF by empirical correlation of DTm and KD, read-out: Apparent KD*): 116 nM
